The numbers were not newly measured in patent US20110236508A1, “L-ARGININE-BASED FORMULATION FOR ORAL ABSORPTION” (priority 2008, published 2011), which cites them from elsewhere.

For series [1] the following is noted: 24 hypercholesterolemic patients, 14 g/day for 12 weeks.
Series [2] concerns peripheral arterial disease. To be noted: 8 g, bid, 14 days.
In another series the test system is anginal patients. The settings on record: 6 g/day.
For another series, the system named is mice deficient in Apo-E. To be noted: 6% L-arginine drinking solution.
A further series has as its system coronary artery disease. To be noted: 9 g/day orally for 6 months.
Series [3] concerns coronary endothelial dysfunction. To be noted: oral 3 g TID, after 6 months.

Consider `N=C(N)NCCC[C@H](N)C(=O)O` [L-arginine], for which the “flow-mediated dilation (FMD) of the brachial artery” value in the series with brachial artery (8 g p.o. two times daily for 14 days, 12 healthy old subjects, p<0.0001) is listed as 5.7+/−1.2%. For the same compound, the “plasma levels of L-arginine” value with brachial artery (after 8 g p.o. two times daily for 14 days, versus 57.4+/−5.0) was 114.9 ± 11.6 µM. Further, the ADMA plasma concentrations entry with brachial artery (during treatment, 8 g p.o. two times daily for 14 days) was “remained unchanged”. The adverse effects entry in series [1] is on record as “no reports of any adverse effects”. In series [2], the “improvement in walking distance” value was 150%. In the series on anginal patients, the exercise tolerance result was “improved” and the “time to 1 mm ST-segment depression during exercise-stress testing” value was “increased”. Besides, the “increase in treadmill exercise performance” value with mice deficient in Apo-E is 61%. Also, in the series on coronary artery disease, the “decrease in anginal episodes” value is reported as 70% and the “improvement of acetylcholine-induced coronary vascular relaxation” value is reported as 149%. Besides, in series [3] (compared with placebo), the “patients' symptoms scores” value was “improvement” and the plasma endothelin concentrations result was “decrease”. For the same compound, in series [3] (P<0.05 versus placebo), the “coronary blood flow in response to acetylcholine” value is 149±20%.
